# Experimental data: patent publication US11357728B2, “Liposome having inner water phase containing sulfobutyl ether cyclodextrin salt” (CSPC ZHONGQI PHARMACEUTICAL TECHNOLOGY (SHIJIAZHUANG) CO., …, priority 2009, dated 2022)
# Tests used:
# [1] = tested on: Prostate RM-1 Tumor Model; assay: Anti-tumor efficacies of topotecan liposomes on prostate RM-1 tumor model; type: in vivo, female C57 mice; conditions: single i.v. 10 mg/kg; for Tumor volume (mm^3): n = 10, x ± sd
# Procedure: RM-1 […] cancer cells were collected, and diluted with 1640 medium. After dilution, the tumor cell number was modulated to 2.0×10^6 cells/ml. 0.2 mL of the tumor cell suspension containing about 4×10^5 tumor cells was inoculated into forward limb oxter subcutaneous tissue of female C57 mice under aseptic condition. Twelve days after inoculation, mice were randomized by tumor volume into groups and administered with a single i.v. injection at a dose of 10 mg/kg.
# The mice were bred normally after administration. Tumor diameters were measured to dynamically evaluate anti-tumor efficacies of different formulations. Tumor volume (TV) was calculated with the following formula: TV=½×a×b^2, in which a and b represent length and width, respectively.
# The tumor volumes were calculated by using the measurement results. The experiment data were analyzed using SPSS 11.5 statistics software.
# KM mice = assay: Toxicity of liposomal formulations in KM mice
# [2] = dosage level 40.6 mg/kg topotecan, two female KM mice per group, 14 days
smiles,measurement,setting,value
"CC[C@@]1(O)C(=O)OCc2c1cc1n(c2=O)Cc2cc3c(CN(C)C)c(O)ccc3nc2-1 [Free topotecan, topotecan]",suppression of tumor growth in comparison with 5% glucose for injection as control,[1]; RM-1 tumor model,did not significantly suppress the growth of tumor
same,Tumor volume (mm^3),[1]; day 0 after administration,223.0 ± 65.7 mm^3
same,Tumor volume (mm^3),[1]; day 2 after administration,484.0 ± 154.7 mm^3
same,Tumor volume (mm^3),[1]; day 4 after administration,606.0 ± 183.1 mm^3
same,Tumor volume (mm^3),[1]; day 6 after administration,1060.7 ± 393.0 mm^3
same,Tumor volume (mm^3),[1]; day 8 after administration,1301.8 ± 563.7 mm^3
same,Tumor volume (mm^3),[1]; day 9 after administration,1628.5 ± 835.4 mm^3
same,Tumor volume (mm^3),[1]; day 13 after administration,3592.9 ± 1523.5 mm^3
same,Tumor volume (mm^3),[1]; day 15 after administration,6639.3 ± 2388.2 mm^3
same,Number of Animals with >15% weight loss,"KM mice; dosage level 32.5 mg/kg topotecan, two female KM mice per group, 14 days",1
same,Number of Animals with >15% weight loss,KM mice; [2],2
same,number of dead animals,KM mice; [2],1
same,order of toxicity,"KM mice; topotecan formulations, KM mice",free topotecan<liposome having SBE-CD/TA as inner water phase<liposome having sucrose octasulfate as inner water phase
